Test [1] addresses MCT1 (Homo sapiens (Human), UniProt P53985). Briefly: MCT1-mediated lactate transport in BT20 breast cancer cells. Type of test: cell-based. The following applies: native MCT1, 10 mM L-lactate, Table 3. On the procedure:
(§1) 10 μL of a 30 mM DMSO stock of BCECF-AM ester (Life Technologies) is added and the cells are incubated at 37° C. for 5 min. The cells are pelleted (300 g, 5 min), washed once with 1 mL Tyrode's Solution, pH 7.4, re-pelleted (300 g, 5 min), and resuspended in 1 mL Tyrode's Solution, pH 7.4.
(§2) 2.5 μL BCECF-loaded cells, along with either 10 μL DMSO or 100×compound in DMSO, are added to 937.5 μL of Tyrode's Solution in a quartz 1.0 mL cuvette (PerkinElmer, B0631116). […] After establishing baseline BCECF fluorescence (around 10-20 s), 50 μL of 1 M sodium L-lactate (Sigma-Aldrich) is added to the cuvette (final concentration: 50 mM) and rapidly mixed. The time-dependent decrease in BCECF fluorescence (490/440 ratio) may be fit to an exponential decay curve (Prism GraphPad) to determine the rate of lactate transport.
Assay 4: MCT1-Mediated Lactate Transport in BT20 Breast Cancer Cells.
Preparation of BCECF loaded cells are as described for Assay 1. Lactate transport assay is as described for Assay 1, except 10 mM L-lactate (rather than 50 mM) is added.

Test [2] deals with MCT4 (Homo sapiens (Human), UniProt O15427). Briefly: MCT4-mediated lactate transport in MDA-MB-231 breast cancer cells. Type of test: cell-based. The settings on record: MDA-MB-231 cells, native MCT4; 50 mM L-lactate. Here is the method: as §1, §2
Chain of MCT4 (O15427 whole entry, looked up): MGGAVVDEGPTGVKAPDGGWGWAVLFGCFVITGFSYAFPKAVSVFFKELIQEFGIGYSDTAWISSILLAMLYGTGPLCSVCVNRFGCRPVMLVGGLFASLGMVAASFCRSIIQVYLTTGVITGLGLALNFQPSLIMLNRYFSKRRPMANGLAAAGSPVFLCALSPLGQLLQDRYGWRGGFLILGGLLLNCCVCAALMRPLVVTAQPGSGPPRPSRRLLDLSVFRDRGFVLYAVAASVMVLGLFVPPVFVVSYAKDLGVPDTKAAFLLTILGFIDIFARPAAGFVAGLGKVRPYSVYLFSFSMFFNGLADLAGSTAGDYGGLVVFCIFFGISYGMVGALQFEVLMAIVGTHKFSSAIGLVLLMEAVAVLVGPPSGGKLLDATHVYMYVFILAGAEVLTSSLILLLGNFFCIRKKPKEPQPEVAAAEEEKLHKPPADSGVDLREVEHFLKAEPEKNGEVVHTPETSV
Chain of MCT4 (P35613 whole entry partner, looked up): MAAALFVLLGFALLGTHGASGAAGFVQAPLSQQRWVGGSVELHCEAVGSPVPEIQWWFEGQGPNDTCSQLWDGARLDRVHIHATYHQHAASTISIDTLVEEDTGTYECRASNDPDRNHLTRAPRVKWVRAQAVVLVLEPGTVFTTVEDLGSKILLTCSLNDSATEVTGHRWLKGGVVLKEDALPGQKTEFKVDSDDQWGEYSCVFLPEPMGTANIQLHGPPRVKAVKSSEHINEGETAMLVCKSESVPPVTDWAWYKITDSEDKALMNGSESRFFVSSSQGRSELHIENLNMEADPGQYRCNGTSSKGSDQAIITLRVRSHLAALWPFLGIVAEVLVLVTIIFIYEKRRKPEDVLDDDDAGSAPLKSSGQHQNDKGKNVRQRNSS
Preparation of BCECF-loaded cells and lactate transport activity may be determined as described for Assay 1.

Bounds are passed on as bounds.

Chain of MCT1 (P53985 whole entry): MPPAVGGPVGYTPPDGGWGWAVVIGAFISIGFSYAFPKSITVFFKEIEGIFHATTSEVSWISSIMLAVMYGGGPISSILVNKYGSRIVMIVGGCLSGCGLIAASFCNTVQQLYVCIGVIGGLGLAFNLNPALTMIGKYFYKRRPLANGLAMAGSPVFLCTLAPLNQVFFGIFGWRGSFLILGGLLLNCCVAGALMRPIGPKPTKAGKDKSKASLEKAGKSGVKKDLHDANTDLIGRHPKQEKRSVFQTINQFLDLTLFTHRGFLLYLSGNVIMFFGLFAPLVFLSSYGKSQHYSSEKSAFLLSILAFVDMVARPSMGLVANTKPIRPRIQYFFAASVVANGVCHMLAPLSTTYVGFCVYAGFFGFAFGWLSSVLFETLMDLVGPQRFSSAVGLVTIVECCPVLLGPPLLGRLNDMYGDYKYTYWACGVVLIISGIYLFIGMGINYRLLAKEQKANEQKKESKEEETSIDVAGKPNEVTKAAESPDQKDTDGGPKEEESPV
Chain of MCT1 (P35613 140-385 partner): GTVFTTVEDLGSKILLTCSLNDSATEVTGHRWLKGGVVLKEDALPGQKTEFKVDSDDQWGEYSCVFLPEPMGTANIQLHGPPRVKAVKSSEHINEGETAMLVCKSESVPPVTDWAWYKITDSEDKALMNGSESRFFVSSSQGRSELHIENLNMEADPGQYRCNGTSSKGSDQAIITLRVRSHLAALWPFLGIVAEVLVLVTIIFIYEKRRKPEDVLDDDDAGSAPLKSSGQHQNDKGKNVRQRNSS

As a reminder, the IC50 is the concentration that gives 50% inhibition. The low end stands for higher potency, the high end for lower potency. As to `CC(C)(OCc1cc(-c2cscn2)n(Cc2ccccc2Cl)n1)C(=O)O` [Example 47, 2-([1-[(o-Chlorophenyl)methyl]-5-(1,3-thiazol-4-yl)-1H-pyrazol-3-yl]methoxy)-2-methylpropionic acid], the results for the IC50 in test [1] and in test [2] were more than 100000 nM and 410 nM, respectively.
Take `CC(C)(OCc1cc(-c2cccc(C#N)c2)n(Cc2ccccc2Cl)n1)C(=O)O` [Example 48, 2-([1-[(o-Chlorophenyl)methyl]-5-(m-cyanophenyl)-1H-pyrazol-3-yl]methoxy)-2-methylpropionic acid]: the IC50 worked out at 55000 nM in test [1] and 89 nM in test [2].
`CC(C)(OCc1cc(-c2cncs2)n(Cc2ccccc2Cl)n1)C(=O)O` [Example 49, 2-([1-[(o-Chlorophenyl)methyl]-5-(1,3-thiazol-5-yl)-1H-pyrazol-3-yl]methoxy)-2-methylpropionic acid]: the IC50 in test [1] was 130000 nM; in test [2] it was 240 nM.
`CN(C)c1cccc(-c2cc(COC(C)(C)C(=O)O)nn2Cc2ccccc2Cl)c1` [Example 50, 2-([1-[(o-Chlorophenyl)methyl]-5-[m-(dimethylamino)phenyl]-1H-pyrazol-3-yl]methoxy)-2-methylpropionic acid]: the half-inhibitory concentration (IC50) in test [1] was found to be 34000 nM; in test [2], 70 nM.
With `CC(C)c1cccc(-c2cc(COC(C)(C)C(=O)O)nn2Cc2ccccc2Cl)c1` [Example 51, 2-([1-[(2-Chlorophenyl)methyl]-5-[3-(propan-2-yl)phenyl]-1H-pyrazol-3-yl]methoxy)-2-methylpropanoic Acid], the results for the half-maximal inhibitory concentration (IC50) in test [1] and in test [2] were 6000 nM and 15 nM, respectively.
As for `COCc1cccc(-c2cc(COC(C)(C)C(=O)O)nn2Cc2ccccc2Cl)c1` [Example 52, 2-([1-[(2-chlorophenyl)methyl]-5-[3-(methoxymethyl)phenyl]-1H-pyrazol-3-yl]methoxy)-2-methylpropanoic acid], the figures for the IC50 in test [1] and in test [2] were 84000 nM and 190 nM, respectively.
Take `COc1cccc(-c2cc(COC(C)(C)C(=O)O)nn2Cc2ccccc2)c1` [Example 53, 2-[[1-benzyl-5-(3-methoxyphenyl)-1H-pyrazol-3-yl]methoxy]-2-methylpropanoic acid]: the 50% inhibitory concentration (IC50) in test [1] was more than 100000 nM; in test [2] it was 160 nM.
Take `CC(C)COc1cccc(-c2cc(COC(C)(C)C(=O)O)nn2Cc2ccccc2)c1` [Example 60, 2-([1-Benzyl-5-[3-(2-methylpropoxy)phenyl]-1H-pyrazol-3-yl]methoxy)-2-methylpropanoic Acid]: the IC50 in test [1] came to 44000 nM; in test [2] it was 13 nM.
For `COc1ccccc1Cn1nc(COC(C)(C)C(=O)O)cc1-c1cccc(OCC(C)C)c1` [Example 61, 2-([1-[(2-methoxyphenyl)methyl]-5-[3-(2-methylpropoxy)phenyl]-1H-pyrazol-3-yl]methoxy)-2-methylpropanoic acid], in that order: 11000 nM and 3.1 nM.
`COc1cccc(Cn2nc(COC(C)(C)C(=O)O)cc2-c2cccc(OCC(C)C)c2)c1` [Example 62, 2-([1-[(3-methoxyphenyl)methyl]-5-[3-(2-methylpropoxy)phenyl]-1H-pyrazol-3-yl]methoxy)-2-methylpropanoic acid]: the IC50 in test [1] is 27000 nM; in test [2] it was 33 nM.
On to `COc1ccc(Cn2nc(COC(C)(C)C(=O)O)cc2-c2cccc(OCC(C)C)c2)cc1` [Example 63, 2-([1-[(4-methoxyphenyl)methyl]-5-[3-(2-methylpropoxy)phenyl]-1H-pyrazol-3-yl]methoxy)-2-methylpropanoic acid], for which the concentration for half-maximal inhibition (IC50) in test [1] came out at 17000 nM; in test [2], 37 nM.
On to `CCC(CC)(OCc1cc(-c2cccc(OC)c2)n(Cc2ccccc2Cl)n1)C(=O)O` [Example 67], for which the IC50 in test [1] turned out to be 17000 nM; in test [2], 11 nM.
The like results for `CC(C)C(=O)Nc1cccc(-c2cc(COC(C)(C)C(=O)O)nn2Cc2ccccc2Cl)c1` [Example 69, 2-([1-[(2-Chlorophenyl)methyl]-5-[3-(2-methylpropanamido)phenyl]-1H-pyrazol-3-yl]methoxy)-2-methylpropanoic Acid] were, in that order, more than 100000 nM and 5800 nM.
Regarding `CC(C)(OCc1cc(-c2cccc(S(C)(=O)=O)c2)n(Cc2ccccc2Cl)n1)C(=O)O` [Example 70, 2-([1-[(2-chlorophenyl)methyl]-5-(3-methanesulfonylphenyl)-1H-pyrazol-3-yl]methoxy)-2-methylpropanoic Acid], the figures for the IC50 in test [1] and in test [2] were more than 100000 nM and 9300 nM, respectively.
`CC(C)(OCc1cc(-c2cccc(NS(C)(=O)=O)c2)n(Cc2ccccc2Cl)n1)C(=O)O` [Example 71, 2-([1-[(2-chlorophenyl)methyl]-5-(3-methanesulfonamidophenyl)-1H-pyrazol-3-yl]methoxy)-2-methylpropanoic Acid]: the values for the 50% inhibitory concentration (IC50) in test [1] and in test [2] were 64000 nM and 34000 nM, respectively.
`CNc1cccc(-c2cc(COC(C)(C)C(=O)O)nn2Cc2ccccc2Cl)c1` [Example 72, 2-([1-[(2-Chlorophenyl)methyl]-5-[3-(methylamino)phenyl]-1H-pyrazol-3-yl]methoxy)-2-methylpropanoic Acid]: the concentration for half-maximal inhibition (IC50) is 45000 nM in test [1] and 220 nM in test [2].
On to `CC(C)CNc1cccc(-c2cc(COC(C)(C)C(=O)O)nn2Cc2ccccc2Cl)c1` [Example 73, 2-([1-[(2-chlorophenyl)methyl]-5-[3-[(2-methylpropyl)amino]phenyl]-1H-pyrazol-3-yl]methoxy)-2-methylpropanoic Acid], for which the IC50 in test [1] was more than 11000 nM; in test [2], 21 nM.
As for `CC(C)NC(=O)c1cccc(-c2cc(COC(C)(C)C(=O)O)nn2Cc2ccccc2Cl)c1` [Example 74, 2-([1-[(o-Chlorophenyl)methyl]-5-[m-(isopropylamino)carbonylphenyl]-1H-pyrazol-3-yl]methoxy)-2-methylpropionic Acid], the values for the half-maximal inhibitory concentration (IC50) in test [1] and in test [2] were more than 100000 nM and 6400 nM, respectively.
The like results for `CC(C)(OCc1cc(Nc2ccccc2)n(Cc2ccccc2Cl)n1)C(=O)O` [Example 75, 2-([1-[(2-chlorophenyl)methyl]-5-(phenylamino)-1H-pyrazol-3-yl]methoxy)-2-methylpropanoic Acid] were, in that order, more than 100000 nM and 1700 nM.
Regarding `CC(C)(OCc1cc(Oc2ccccc2)n(Cc2ccccc2Cl)n1)C(=O)O` [Example 76, 2-([1-[(2-Chlorophenyl)methyl]-5-phenoxy-1H-pyrazol-3-yl]methoxy)-2-methylpropanoic Acid], the IC50 stood at 38000 nM in test [1] and 400 nM in test [2].
Regarding `CC(C)(OCc1cc(-c2cccc(O)c2)n(Cc2ccccc2Cl)n1)C(=O)O` [Example 79, 2-[[1-[(2-Chlorophenyl)methyl]-5-(3-hydroxyphenyl)pyrazol-3-yl]methoxy]-2-methyl-propanoic Acid], the IC50 in test [1] came out at 15000 nM; in test [2] it was 59 nM.
With `COc1cccc(-c2cc(COC(C)(C)C(=O)NS(C)(=O)=O)nn2Cc2ccccc2Cl)c1` [Example 81, 2-[[1-[(2-chlorophenyl)methyl]-5-(3-methoxyphenyl)pyrazol-3-yl]methoxy]-2-methyl-N-methylsulfonyl-propanamide], the half-inhibitory concentration (IC50) in test [1] was 6600 nM; in test [2] it was 6300 nM.
Take `COC(=O)C(C)(C)OCc1cc(-c2cccc(OC)c2)n(Cc2ccccc2Cl)n1` [Example 82, Methyl 2-[[1-[(2-chlorophenyl)methyl]-5-(3-methoxyphenyl)pyrazol-3-yl]methoxy]-2-methyl-propanoate]: the figures for the half-inhibitory concentration (IC50) in test [1] and in test [2] were 16000 nM and 460 nM, respectively.

The values above are taken from US10202350B2, “MCT4 inhibitors for treating disease” (Vettore, LLC, priority 2015, dated 2019).
